In patent EP4741392A1, “1H-PYRAZOLO[4,3-C]PYRIDINE COMPOUND, AND COMPOSITION THEREOF AND USE THEREOF” (Shenzhen TargetRx Co., Ltd., priority 2023, dated 2025):

How the values were obtained:
Type in all cases: cell-based
[1] = tested on: TMD8 cells; experiment: Viability assay of TMD8 cells (CTG); conditions: Homo sapiens, cell viability, 120 hours
Method: (§1) The in vitro antiproliferative activity of the compounds of the present disclosure against TMD8 cells and OCI-LY10 cells was assayed using CTG (Cell Titer-Glo) luminescent cell viability assay. The specific assay methods were as follows. • a) TMD8 cells were cultured at 37 °C and 5% CO2 in complete medium [RPMI 1640 (supplier Gibco, product number 22400-089) + 10% FBS (supplier Gibco, product number 10091-148) + 1% P/S (supplier Hyclone, product number SV30010)]; OCI-LY10 cells were cultured at 37 °C and 5% CO2 in medium [IMDM (supplier Gibco, product number 31980-030) + 20% FBS (supplier Gibco, product number 10091-148) + 1% P/S (supplier Hyclone, product number SV30010) + 0.05 mM 2-Mercaptoethanol (supplier Sigma, product number M6250)]. • b) Cells in the logarithmic growth phase were harvested, and the total cell count and viable cell count were determined using a Vi-cell cell counter (supplier: BECKMAN COULTER, product number 2785198). • c) Cell density was adjusted using complete culture medium. Then, the cells were inoculated at 1500 cells per well in a 384-well cell culture plate (supplier Greiner, product number 781090). • d) The cells in the 384-well plate were cultured at 37 °C and 5% CO2 overnight. • e) A 10-fold drug solution was prepared, and then the serially diluted compound was transferred to the corresponding assay wells of the 384-well cell plate so that the final assay concentration was 1000 nM, with 9 concentrations, 3-fold dilutions, and triplicates for each drug concentration. • f) The cells in the 384-well plate with the drug added were cultured at 37 °C and 5% CO2 for another 120 hours. • g) The cells were removed from the incubator, and allowed to equilibrate at room temperature for 30 minutes. The cell state and compound solubility were observed under a microscope. • h) An equal volume of CellTiterGlo solution (supplier Promega, product number G7573) was added to each well, and the plate was incubated at room temperature for 30 minutes. • i) Then, the luminescent signal value was detected on an EnVision instrument (supplier PerkinElmer, product number 2441715).
(§2) The data were analyzed using XL-fit software (supplier: ID Business Solutions Ltd., software version: XL fit 5.5.0.5). Nonlinear regression was performed using X=Log(X), and the X values were transformed using a four-parameter Logistic model 205, from which the IC50 values were calculated. Inhibition rate % = (Max−samplevalue)/Max*100.(Max:DMSOnegativecontrol) [formula]

[2] = tested on: Ba/F3-ETV6-BTK-T474I cells; experiment: Viability assay of Ba/F3-ETV6-BTK-T474I cells (CTG); conditions: Mus musculus, BaF3, cell viability, 72 hours
Method: The in vitro antiproliferative activity of the compounds of the present disclosure against Ba/F3-ETV6-BTK-T474I cells was assayed using CTG luminescent cell viability assay. The specific assay methods were as follows: • a) Ba/F3-ETV6-BTK-T474I cells were cultured at 37 °C and 5% CO2 in complete medium [RPMI 1640 (supplier Gibco, product number 22400-089) + 10% FBS (supplier Gibco, product number 10091-148)]. • b) Cells in the logarithmic growth phase were harvested, and cell counting was performed using a […]. Trypan blue exclusion test was used to determine the cell viability, ensuring that the cell viability was above 90%. • c) Cell density was adjusted using complete culture medium. Then, the cells were inoculated at 90 µL, a total of 3000 cells per well in a 96-well cell culture plate (supplier: Shanghai Jing An Biotechnology Co., Ltd., product number J09601). • d) The cells in the 96-well plate were cultured at 37 °C and 5% CO2. • e) A 10-fold drug solution was prepared, and then 10 µL of each serially diluted compound was transferred to the corresponding assay wells of the 96-well cell plate so that the final assay concentration was 1000 nM, with 9 concentrations, 3.16-fold dilutions, and triplicates for each drug concentration. • f) The cells in the 96-well plate with the drug added were cultured at 37 °C and 5% CO2 for another 72 hours. Then, CTG analysis was performed. • g) The CTG reagent was melted, and the cell plate was equilibrated at room temperature for 30 minutes. • h) An equal volume of CTG solution was added to each well. • i) The plate was shaken on an orbital shaker for 5 minutes to lyse the cells. • j) The cell plate was placed at room temperature for 20 minutes to stabilize the luminescent signal. • k) The luminescent signal values were read and the data were collected.
The data were analyzed using GraphPad Prism 7.0 software. Nonlinear S-curve regression was used to fit the data to give a dose-response curve, from which the IC50 values were calculated. [formula]

[3] = tested on: OCI-LY10 cells; experiment: Viability assay of OCI-LY10 cells (CTG); conditions: Homo sapiens, OCI-Ly10, 120 h, cell viability, read-out: OCl-Ly10
Method: as §1, §2

| Structure (SMILES) | IC50 [2] | IC50 [3] | IC50 [1] |
| --- | --- | --- | --- |
| COc1ccc(F)cc1C(=O)NCc1ccc(-c2ncc(-c3ccc(CN4CCOCC4)cn3)c3[nH]nc(N)c23)cc1 [Example 67, N-(4-(3-amino-7-(5-(morpholinomethyl)pyridin-2-yl)-1H-pyrazolo[4,3-c]pyridin-4-yl)benzyl)-5-fluoro-2-methoxybenzamide] | ≤ 5 nM | ≤ 5 nM | ≤ 5 nM |
| COc1ccc(F)cc1C(=O)NCc1ccc(-c2ncc(-c3ccc(CN4CCN(C)CC4)cn3)c3[nH]nc(N)c23)cc1 [Example 68, N-(4-(3-amino-7-(5-((4-methylpiperazin-1-yl)methyl)pyridin-2-yl)-1H-pyrazolo[4,3-c]pyridin-4-yl)benzyl)-5-fluoro-2-methoxybenzamide] | ≤ 5 nM | ≤ 5 nM | ≤ 5 nM |
| CCN1CCn2nc(-c3cnc(-c4ccc(CNC(=O)c5cc(F)ccc5OC)cc4)c4c(N)n[nH]c34)cc2C1 [Example 72, N-(4-(3-amino-7-(5-ethyl-4,5,6,7-tetrahydropyrazolo[1,5-a]pyrazin-2-yl)-1H-pyrazolo[4,3-c]pyridin-4-yl)benzyl)-5-fluoro-2-methoxybenzamide] | 5 to 10 nM | ≤ 5 nM | ≤ 5 nM |
| COc1ccc(F)cc1C(=O)NCc1ccc(-c2ncc(-c3ccc(N4CCN(C)C[C@H]4C)cn3)c3[nH]nc(N)c23)cc1 [Example 75, (R)-N-(-4-(3-amino-7-(5-(2,4-dimethylpiperazin-1-yl)pyridin-2-yl) 1H-pyrazolo[4,3-c]pyridin-4-yl)benzyl)-5-fluoro-2-methoxybenzamide] | ≤ 5 nM | ≤ 5 nM | ≤ 5 nM |
| COc1ccc(F)cc1C(=O)NCc1ccc(-c2ncc(-c3ccc(N4CCOCC4)cn3)c3[nH]nc(N)c23)cc1 [Example 76, N-(4-(3-amino-7-(5-morpholinopyridin-2-yl)-1H-pyrazolo[4,3-c]pyridin-4-yl)benzyl)-5-fluoro-2-methoxybenzamide] | ≤ 5 nM | ≤ 5 nM | ≤ 5 nM |

More lines, main results first:

| IC50 [2] | IC50 [3] | Structure (SMILES) | IC50 [1] |
| --- | --- | --- | --- |
| ≤ 5 nM | ≤ 5 nM | COc1ccc(F)cc1C(=O)NCc1ccc(-c2ncc(-c3ccc(C(C)(C)O)cn3)c3[nH]nc(N)c23)cc1 [Example 65, N-(4-(3-amino-7-(5-(2-hydroxypropan-2-yl)pyridin-2-yl)-1H-pyrazolo[4,3-c]pyridin-4-yl)benzyl)-5-fluoro-2-methoxybenzamide] | ≤ 5 nM |
| ≤ 5 nM | ≤ 5 nM | COc1ccc(F)cc1C(=O)NCc1ccc(-c2ncc(-c3ccc(CN4CCCCC4)cn3)c3[nH]nc(N)c23)cc1 [Example 66, N-(4-(3-amino-7-(5-(piperidin-1-ylmethyl)pyridin-2-yl)-1H-pyrazolo[4,3-c]pyridin-4-yl)benzyl)-5-fluoro-2-methoxybenzamide] | ≤ 5 nM |
| 10 to 50 nM | ≤ 5 nM | COc1ccc(F)cc1C(=O)NCc1ccc(-c2ncc(-c3cc4ccccn4n3)c3[nH]nc(N)c23)cc1 [Example 69, N-(4-(3-amino-7-(pyrazolo[1,5-a]pyridin-2-yl)-1H-pyrazolo[4,3-c]pyridin-4-yl)benzyl)-5-fluoro-2-methoxybenzamide] | ≤ 5 nM |
| 5 to 10 nM | ≤ 5 nM | COc1ccc(F)cc1C(=O)NCc1ccc(-c2ncc(-c3cc4n(n3)CCN(C)C4)c3[nH]nc(N)c23)cc1 [Example 71, N-(4-(3-amino-7-(5-methyl-4,5,6,7-tetrahydropyrazolo[1,5-a]pyrazin-2-yl)-1H-pyrazolo[4,3-c]pyridin-4-yl)benzyl)-5-fluoro-2-methoxybenzamide] | ≤ 5 nM |
| ≤ 5 nM | ≤ 5 nM | COc1ccc(F)cc1C(=O)NCc1ccc(-c2ncc(-c3ccc(N4CCN(C)C[C@@H]4C)cn3)c3[nH]nc(N)c23)cc1 [Example 74, (S)-N-(-4-(3-amino-7-(5-(2,4-dimethylpiperazin-1-yl)pyridin-2-yl) 1H-pyrazolo[4,3-c]pyridin-4-yl)benzyl)-5-fluoro-2-methoxybenzamide] | ≤ 5 nM |
| > 50 nM | 10 to 50 nM | COc1ccc(F)cc1C(=O)NCc1ccc(-c2nc(C3CCOCC3)cc3[nH]nc(N)c23)cc1 [Example 115, N-(4-(3-amino-6-(tetrahydro-2H-pyran-4-yl)-1H-pyrazolo[4,3-c]pyridin-4-yl)benzyl)-5-fluoro-2-methoxybenzamide] | 10 to 50 nM |
